Patent US11932870B2, “Compositions and methods for immune cell modulation in adoptive immunotherapies” (Fate Therapeutics, Inc., priority 2016, dated 2024)
“Also recorded” adds a separate entry of the source.

How the values were obtained:
Type in all cases: cell-based, human
viable CD4+ population = assay: T cell compound screen: CCR7+CD62L+ cells in the viable CD4+ population (flow cytometry); settings: 10 μM, about 6 days, anti-CD3/anti-CD28 beads; hit = Z-score > +2 for percent or absolute number CCR7+CD62L+ in CD4+
Description: In Vitro T Cell Culture. Fresh leukopaks (AllCells, Alameda, CA) were obtained from healthy donors, from which T cells were negatively selected using the EasySep Human T cell Enrichment Kit (Stem Cell Technologies, Vancouver, Canada). The freshly isolated T cells were aliquoted and cryopreserved. On the day the screens were initiated, T cells were thawed and washed into X-Vivo 15 with 5% human AB serum, IL-2, pen/strep, and additional supplements. Cells were dispensed into flat-bottom 384-well plates at 5×10^5 cells/ml with anti-CD3/anti-CD28 beads. Individual compounds were added at a final concentration of 10 μM to each well from column 3 to column 22 of each plate. Positive and negative controls were added to additional wells. Cells were incubated for about 6 days at 37 degrees with 5% CO2.
Flow Cytometry. On Day 6 of culture, cells were stained with a fixable viability marker and fluorophore-conjugated antibodies: CD3, CD4, CD8, CD45RA, CD45RO, CD62L, CCR7, CD27, and CD122 (BD Biosciences, San Jose, CA; and BioLegend, San Diego, CA). Fluorescent absolute counting beads (Spherotech, Lake Forest, IL) were added just prior to acquisition. Data acquisition was performed on a BD Fortessa X-20 (BD Biosciences) and data were analyzed using Treestar software (FlowJo, Ashland, OR) and Spotfire (Tibco, Boston, MA).
These cells are characterized by expression of CCR7 and CD62L. Therefore, cells co-expressing both of these identifying markers were evaluated. Within the viable CD4+ population and viable CD8+ population, the percent of cells co-expressing CCR7 and CD62L was determined. The expression of either CD62L or CCR7 on T cells, as indicative of the desired T cell subsets, have been described as having favorable functional characteristics for CAR-T cell therapy, and potentially other adoptive T cell therapies.
The number of events in each of these gates relative to the number of absolute counting beads in each sample was calculated, defining a measure of the absolute number of naïve, stem cell memory, or central memory T cells within the CD4+ and/or CD8+ populations. A z-Score relative to the screened compound samples within each 384-well plate was calculated for each of these four values: 1) percent CCR7+CD62L+in CD4+, 2) percent CCR7+CD62L+in CD8+, 3) absolute relative number of CCR7+CD62L+in CD4+, and 4) absolute number of CCR7+CD62L+in CD8+(FIGS. 1A and 1i). Z-scores were also calculated for the percent viability of all cells within each sample and the relative absolute number of cells within each sample. A “Z-Score” is a statistical measurement of a score's relationship to the mean in a group of scores. AZ-score of 0 means the score is the same as the mean. AZ-score can also be positive or negative, indicating whether it is above or below the mean and by how many standard deviations.

CD8 CAR-T cells = assay: Exhaustion marker expression (PD-1, Tim-3) on CD8 CAR-T cells
Experimental: Culturing cells in large-scale for phenotypic and exhaustion marker evaluation. Isolated CD8 T cells were activated in bulk on day 0 using anti-CD3/anti-CD28 beads in T cell media supplemented with IL-2. On day 1, cells were transduced with the CAR Construct and cell density was adjusted to 0.5×10^6/ml and 10^6 cells were seeded into 12-well plates in the presence of vehicle, TWS119, or DCC-2036. On day 4, cells were transferred into 6-well plates and 2 ml of T cell media was added to each well. On day 6 another 2 ml of media was added to each well. On day 8, CAR T cells were analyzed on a flow cytometer for surface expression of phenotypic markers (CD62L, CCR7, and CD27) and exhaustion markers (PD-1 and Tim-3).
To determine the effect of compound treatment of CAR-T cells on exhaustion marker expression, cells from three different donors were prepared and treated as described in the protocol above. PD-1 and Tim-3 expression was determined using flow cytometry. […] Tim-3 expression was reduced 2-fold with TWS119, and 3.7-fold with DCC-2036 treatment (FIG. 6A).

CD8+ T cells = assay: RNA-Seq gene expression of memory T cell genes; settings: DCC-2036 1 μM, TWS-119 10 μM, roughly 6 days, 5 donors, relative to vehicle, FIG. 5
Description: To characterize the impact of DCC-2036 in memory cell skewing, gene expression changes for a panel of key genes, (i.e. CCR7, CD62L, etc.) previously known to be highly expressed in memory T cells were investigated. Cryopreserved CD8+ T cells from 5 different donors were thawed and washed into X-Vivo 15 with 5% human AB serum, IL-2, pen/strep, and additional supplements. Cells were dispensed into flat-bottom 384-well plates at 5×10^5 cells/ml with anti-CD3/anti-CD28 beads. Cells were either treated with DCC-2036 at a final concentration of 1 μM, TWS-119 at 10 μM, or received a vehicle (DMSO) only control treatment. Cells were incubated for roughly 6 days at 37 degrees Celsius with 5% CO2.
Post incubation, cells were lysed and RNA was isolated, fragmented and cDNA was generated in the presence of the appropriate sequencing adapters and sequencing was performed using Illumina next generation sequencing technology (NGS). RNA-Sequencing (RNA-Seq) utilizes the capabilities of NGS to not only acquire nucleotide sequence information, but also provide quantitative gene expression measurements from a given samples transcriptome. Gene transcripts were normalized to counts per million (CPM) reads per samples and relative quantitation of each gene transcript was determined for each in treatment relative to the matching vehicle control treated samples. […]

[1] = system: CD8 T cells transduced with the CAR-2 construct; assay: Larger-scale (24-well GREX) CAR-T culture: viability and expansion; settings: expanded with compound or vehicle for 6 days
Description: The cells were transduced with the CAR-2 construct (FIG. 2) one day after activation and then replated into 24-well GREX plates with or without compounds. Half the media was replaced every two days thereafter until harvest one week post activation. Cells were activated and expanded in the presence of compound or vehicle for 6 days.

## CNC(=O)c1cc(Oc2ccc(NC(=O)Nc3cc(C(C)(C)C)nn3-c3ccc4ncccc4c3)c(F)c2)ccn1 [DCC-2036, Rebastinib]
Viable CD4+ population
  CD4 Hit: CD4
CD8 CAR-T cells; CD8 T cells at one week post activation, relative to DMSO, FIG. 6A
  expression of T cell exhaustion marker Tim-3: reduced expression
CD8 CAR-T cells; CD8 T cells at one week post activation, relative to DMSO, FIG. 6B
  expression of T cell exhaustion marker PD-1: reduced expression
CD8 CAR-T cells; relative to vehicle, three donors, FIG. 6A
  reduction of Tim-3 expression: 3.7 fold
CD8 CAR-T cells; relative to vehicle, three donors, FIG. 6B
  decrease in PD-1 surface expression: 4.5 fold
CD8+ T cells
  expression of key memory T cell genes (CCR7, CD62L etc.): increases in expression at levels similar to or greater than TWS-119
CD8+ T cells; listed as DCC-2036 (FT-61314)
  expression of key memory T cell genes (CCR7, CD62L etc.): increased expression
[1]; FIG. 3A
  CAR-T cell viability: improved; also recorded: maintaining viability
[1]; FIG. 3B
  CAR-T cell expansion: improved; also recorded: enhancing expansion
